This passage reports TGI and GI50 results from PubChem BioAssay (NCI).

Common to all, as to experiment: NCI tumour cell line growth inhibition, 48 h
The test system of experiment [1] is DLD-1 colon.
Experiment [2] relates to DMS 114 small cell lung.
For experiment [3], the system named is DMS 273 small cell lung.
Experiment [4] has as its system HOP-18 NSCLC.
In experiment [5] the test system is KM20L2 colon.
Experiment [6] relates to P388 leukemia.
The test system of experiment [7] is SN12K1 renal.
The subject of experiment [8] is SNB-78 CNS.
Experiment [9] has as its system LXFL 529 NSCLC.
In experiment [10] the test system is XF 498 CNS.

SMILES strings stand for the structures.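 Values below derive from 48-hour exposures of cells grown in 96-well plates, with endpoints linearly interpolated between the two concentrations bracketing the appropriate inhibition level. GI50: concentration for 50% inhibition of growth. Definition used: TGI = concentration required for complete inhibition of growth.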 A value given as a limit tells only on which side of the number the result lay.

`C=C(C)C(=O)O[C@H]1CC2=C[C@@H](C[C@@]3(C)O[C@@H]3[C@H]3OC(=O)C(=C)[C@@H]31)OC2=O`: the TGI in experiment [1] was found to be 3.3 µM; in experiment [2], 9.35 µM; in [3] it was 8.09 µM; in [4], 10.9 µM; in experiment [5], 10.5 µM; in [6], 15.6 µM. Besides, the figures for the TGI in experiment [7] and in experiment [8] were 12.1 µM and 300 µM, respectively. Also, the GI50 in [4] was 6.42 µM; in experiment [8], 1270 nM.
For `Cc1nc2c(c(=O)[nH]1)S/C(=C(/C#N)c1nc3ccccc3[nH]1)N2c1ccccc1`, the TGI in experiment [1], in [2], in experiment [3], in [5], in [9] and in experiment [8] was more than 100 µM throughout. The same molecule displayed a TGI in experiment [10] of more than 100 µM.
Regarding `COc1ccc2c(c1O)-c1cc(O)cc3c1[C@@H](C2)N(C)CC3`, the TGI came to 121 µM in experiment [1]; 127 µM in experiment [3]; 31.2 µM in experiment [5]; 106 µM in experiment [6]; 122 µM in [7]; 212 µM in experiment [8]. In experiment [10], this molecule registered a TGI of 160 µM.
Consider `NC(=S)N/N=C/c1nccc2ccccc12`, for which the TGI in [1] is more than 100 µM; in [2], 2.51 µM; in experiment [3] it was 12.9 µM; in [4], more than 100 µM; in experiment [5] it was more than 100 µM; in experiment [9] it was more than 100 µM.
`COc1cc([C@@H]2c3cc4c(c(O)c3C[C@H]3COC(=O)[C@@H]32)OCO4)cc(OC)c1OC`: the GI50 in [1] is 0.0646 nM; in experiment [7] it was 0.0526 nM; in experiment [8] it was 0.011 nM. Also, the TGI is 1.5 µM in [2]; 1.5 µM in [3]; 61.9 µM in experiment [4]; 0.522 µM in [5]; 0.551 µM in experiment [6]; 0.000207 µM in experiment [7]. In addition, the TGI in experiment [10] was found to be 0.0887 µM.
